Measured values taken from ChEMBL document CHEMBL5143603, “Discovery of novel 2,8-diazaspiro[4.5]decan-1-one derivatives as potent RIPK1 kinase inhibitors” (Bioorg Med Chem, 2022).

Tests used:
[1] = target: T1, Receptor-interacting serine/threonine-protein kinase 1 (Homo sapiens, UniProt Q13546); assay: Inhibition of human RIPK1 incubated for 40 min in presence of ATP by ADP-Glo luminescence kinase assay
T1 sequence (Q13546 whole entry): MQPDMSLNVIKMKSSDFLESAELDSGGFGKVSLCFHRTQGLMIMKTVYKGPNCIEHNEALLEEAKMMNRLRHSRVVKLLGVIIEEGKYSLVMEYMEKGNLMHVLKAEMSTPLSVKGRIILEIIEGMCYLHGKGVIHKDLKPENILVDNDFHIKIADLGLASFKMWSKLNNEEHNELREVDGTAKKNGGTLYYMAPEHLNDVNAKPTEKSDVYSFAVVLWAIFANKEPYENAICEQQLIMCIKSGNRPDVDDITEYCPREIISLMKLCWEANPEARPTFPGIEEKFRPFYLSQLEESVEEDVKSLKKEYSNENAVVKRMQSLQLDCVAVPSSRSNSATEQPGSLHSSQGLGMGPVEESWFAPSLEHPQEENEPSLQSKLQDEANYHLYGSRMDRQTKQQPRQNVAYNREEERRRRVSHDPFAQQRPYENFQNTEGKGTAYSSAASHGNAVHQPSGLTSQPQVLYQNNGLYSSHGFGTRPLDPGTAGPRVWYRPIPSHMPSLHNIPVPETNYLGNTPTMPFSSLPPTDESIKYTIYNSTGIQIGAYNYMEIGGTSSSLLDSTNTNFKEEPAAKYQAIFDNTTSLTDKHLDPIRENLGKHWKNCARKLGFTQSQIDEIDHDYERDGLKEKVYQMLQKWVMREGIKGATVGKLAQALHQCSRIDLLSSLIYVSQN

U-937 [2] = assay: Anti-necroptotic activity in human U-937 cells assessed as inhibition of LPS/Z-VAD-fmk (LSZ)-induced necroptosis preincubated with PMA followed by compound addition and measured after 9 hrs by CCK8 assay; assay type: functional, cell-based; details: DDE = dose-dependent effect
U-937 [3] = assay: Anti-necroptotic activity in human U-937 cells assessed as decrease in phosphorylation of MLKL level preincubated with PMA and LPS followed by compound addition and measured after 9 hrs by western blot analysis; assay type: functional, cell-based; details: DDE = dose-dependent effect

| Structure (SMILES) | IC50 [1] | Activity (U-937 [2]) | Activity (U-937 [3]) |
| --- | --- | --- | --- |
| O=C(c1ccccc1)N1CCC2(CC1)CN(Cc1ccccc1)C2=O | 1010 nM |  |  |
| Cn1ccc2ccc(C(=O)N3CCC4(CC3)CCN(Cc3cc(F)ccc3F)C4=O)cc21 |  | Dde | Dde |
| CN1C(=O)C(Cc2c[nH]c3ccccc23)NC1=S (stereo not given) [NECROSTATIN] | 1140 nM |  |  |
| CCC(C)(C)C(=O)N(O)Cc1ccccc1 | 298 nM |  |  |
